The results in this text go back to US8673942B2, “Fused ring compounds and use thereof” (Takeda Pharmaceutical Company Limited, priority 2008, dated 2014).

Molecules are shown by their SMILES.

As usually defined, the melting point is the temperature, or range, at which the solid turns liquid.

As for `COCc1ccc(Oc2cc(OC)c3[nH]c(C4=NCC(CC(N)=O)S4)cc3c2)cn1` (stereo not drawn) [Example 49, 2-[2-(7-Methoxy-5-{[6-(methoxymethyl)pyridin-3-yl]oxy}-1H-indol-2-yl)-4,5-dihydro-1,3-thiazol-5-yl]acetamide], the melting point was in the range of 135 to 136 °C.
In the case of `COCCOc1c(F)c(Oc2ccc(S(C)(=O)=O)nc2)cc2cc(C3=NCC(CC(N)=O)S3)[nH]c12` (stereo not drawn) [Example 93, 2-{2-[6-Fluoro-7-(2-methoxyethoxy)-5-{[6-(methylsulfonyl)pyridin-3-yl]oxy}-1H-indol-2-yl]-4,5-dihydro-1,3-thiazol-5-yl}acetamide], the melting point fell in the range of 143 to 144 °C.
`CNC(=O)CC1CN=C(c2cc3cc(Oc4ccc(S(C)(=O)=O)cn4)cc(OC(C)C)c3[nH]2)S1` (stereo not drawn) [Example 68, N-Methyl-2-{2-[7-(1-methylethoxy)-5-{[5-(methylsulfonyl)pyridin-2-yl]oxy}-1H-indol-2-yl]-4,5-dihydro-1,3-thiazol-5-yl}acetamide] gave a melting point of 190 to 192 °C.
`COCCOc1c(F)c(Oc2ccc(S(C)(=O)=O)nc2)cc2cc(C3=NCC(CCO)S3)[nH]c12` (stereo not drawn) [Example 90, 2-{2-[6-Fluoro-7-(2-methoxyethoxy)-5-{[6-(methylsulfonyl)pyridin-3-yl]oxy}-1H-indol-2-yl]-4,5-dihydro-1,3-thiazol-5-yl}ethanol] showed a melting point of 160 to 161 °C.
The compound `CS(=O)(=O)c1ccc(Oc2cc(OCc3ccccc3)c3[nH]c(C4=NCC(CC(N)=O)S4)cc3c2)cc1` (stereo not drawn) [Example 4, 2-(2-{7-(Benzyloxy)-5-[4-(methylsulfonyl)phenoxy]-1H-indol-2-yl}-4,5-dihydro-1,3-thiazol-5-yl)acetamide] gave a melting point of 134 to 135 °C.
In the case of `CNC(=O)CC1CN=C(c2cc3cc(Oc4ccc(COC)nc4)cc(OC)c3[nH]2)S1` (stereo not drawn) [Example 50, 2-[2-(7-Methoxy-5-{[6-(methoxymethyl)pyridin-3-yl]oxy}-1H-indol-2-yl)-4,5-dihydro-1,3-thiazol-5-yl]-N-methylacetamide] it was 102 to 104 °C; in that of `CCOc1cc(Oc2ccc(S(C)(=O)=O)nc2)cc2cc(C3=NCC(CCO)S3)[nH]c12` (stereo not drawn) [Example 95, 2-[2-(7-Ethoxy-5-{[6-(methylsulfonyl)pyridin-3-yl]oxy}-1H-indol-2-yl)-4,5-dihydro-1,3-thiazol-5-yl]ethanol], 147 to 148 °C.
Regarding `CC(C)Oc1cc(Oc2ccc(S(C)(=O)=O)cn2)cc2cc(C3=NCC(CCO)S3)[nH]c12` (stereo not drawn) [Example 62], the melting point lay within 172 to 173 °C.
For the compound `COc1cc(Oc2ccc(S(C)(=O)=O)cc2)cc2cc(C3=NCC(CC(N)=O)S3)[nH]c12` (stereo not drawn) [Example 104, 2-(2-{7-Methoxy-5-[4-(methylsulfonyl)phenoxy]-1H-indol-2-yl}-4,5-dihydro-1,3-thiazol-5-yl)acetamide], the melting point was in the range of 169 to 170 °C.
As for `COc1cc(Oc2ccc(S(C)(=O)=O)cc2)cc2cc(C3=NCC(CC(=O)O)S3)[nH]c12` (stereo not drawn) [Example 102, (2-{7-Methoxy-5-[4-(methylsulfonyl)phenoxy]-1H-indol-2-yl}-4,5-dihydro-1,3-thiazol-5-yl)acetic acid], the melting point fell in the range of 144 to 145 °C.
In the case of `CNC(=O)CC1CN=C(c2cc3cc(Oc4ccc(S(C)(=O)=O)cn4)cc(OC(COC)COC)c3[nH]2)S1` (stereo not drawn) [Example 46, 2-[2-(7-[2-Methoxy-1-(methoxymethyl)ethoxy]-5-{[5-(methylsulfonyl)pyridin-2-yl]oxy}-1H-indol-2-yl)-4,5-dihydro-1,3-thiazol-5-yl]-N-methylacetamide] it was 123 to 125 °C; in that of `CNC(=O)CC1CN=C(c2cc3cc(Oc4ccc(S(C)(=O)=O)nc4)cc(OC(COC)COC)c3[nH]2)S1` (stereo not drawn) [Example 36, 2-[2-(7-[2-Methoxy-1-(methoxymethyl)ethoxy]-5-{[6-(methylsulfonyl)pyridin-3-yl]oxy}-1H-indol-2-yl)-4,5-dihydro-1,3-thiazol-5-yl]-N-methylacetamide], 149 to 151 °C.
For the compound `CC(C)Oc1cc(Oc2ccc(S(C)(=O)=O)cn2)cc2cc(C3=NCC(CC(C)(C)O)S3)[nH]c12` (single isomer, unassigned) [Example 64, 2-Methyl-1-{2-[7-(1-methylethoxy)-5-{[5-(methylsulfonyl)pyridin-2-yl]oxy}-1H-indol-2-yl]-4,5-dihydro-1,3-thiazol-5-yl}propan-2-ol], the melting point fell in the range of 145 to 146 °C.
`CCOc1cc(Oc2ccc(S(C)(=O)=O)nc2)cc2cc(C3=NCC(CC(N)=O)S3)[nH]c12` (stereo not drawn) [Example 100, 2-[2-(7-Ethoxy-5-{[6-(methylsulfonyl)pyridin-3-yl]oxy}-1H-indol-2-yl)-4,5-dihydro-1,3-thiazol-5-yl]acetamide] had a melting point of 195 to 196 °C.
Turning to `CS(=O)(=O)c1ccc(Oc2cc(OCc3ccccc3)c3[nH]c(C4=NCC(CCO)S4)cc3c2)cc1` (stereo not drawn) [Example 2, 2-(2-{7-(Benzyloxy)-5-[4-(methylsulfonyl)phenoxy]-1H-indol-2-yl}-4,5-dihydro-1,3-thiazol-5-yl)ethanol], the melting point was in the range of 97 to 98 °C.
`COCc1ccc(Oc2cc(OC(C)C)c3[nH]c(C4=NCC(CC(=O)NC5CC5)S4)cc3c2)cn1` (stereo not drawn) [Example 72, N-Cyclopropyl-2-{2-[5-{[6-(methoxymethyl)pyridin-3-yl]oxy}-7-(1-methylethoxy)-1H-indol-2-yl]-4,5-dihydro-1,3-thiazol-5-yl}acetamide] showed a melting point of 100 to 101 °C.
Regarding `CCNC(=O)CC1CN=C(c2cc3cc(Oc4ccc(S(C)(=O)=O)nc4)cc(OC)c3[nH]2)S1` (stereo not drawn) [Example 77, N-Ethyl-2-[2-(7-methoxy-5-{[6-(methylsulfonyl)pyridin-3-yl]oxy}-1H-indol-2-yl)-4,5-dihydro-1,3-thiazol-5-yl]acetamide], the melting point was in the range of 236 to 237 °C.
As to `COCC(C)Oc1cc(Oc2ccc(S(C)(=O)=O)nc2)cc2cc(C3=NCC(CC(N)=O)S3)[nH]c12` (stereo not drawn) [Example 86, 2-{2-[7-(2-Methoxy-1-methylethoxy)-5-{[6-(methylsulfonyl)pyridin-3-yl]oxy}-1H-indol-2-yl]-4,5-dihydro-1,3-thiazol-5-yl}acetamide], the melting point was 131 to 132 °C.
Compound `CC(C)Oc1cc(Oc2ccc(S(C)(=O)=O)cn2)cc2cc(C3=NCC(CC(C)(C)O)S3)[nH]c12` (stereo not drawn) [Example 63, 2-Methyl-1-{2-[7-(1-methylethoxy)-5-{[5-(methylsulfonyl)pyridin-2-yl]oxy}-1H-indol-2-yl]-4,5-dihydro-1,3-thiazol-5-yl}propan-2-ol] came in with a melting point of 151 to 153 °C.
`COCC(C)Oc1cc(Oc2ccc(S(C)(=O)=O)nc2)cc2cc(C3=NCC(CCO)S3)[nH]c12` (stereo not drawn) [Example 84, 2-{2-[7-(2-Methoxy-1-methylethoxy)-5-{[6-(methylsulfonyl)pyridin-3-yl]oxy}-1H-indol-2-yl]-4,5-dihydro-1,3-thiazol-5-yl}ethanol] came in with a melting point of 138 to 139 °C.
As to `CCOc1cc(Oc2ccc(S(C)(=O)=O)nc2)cc2cc(C3=NCC(CC(=O)O)S3)[nH]c12` (stereo not drawn) [Example 96, [2-(7-Ethoxy-5-{[6-(methylsulfonyl)pyridin-3-yl]oxy}-1H-indol-2-yl)-4,5-dihydro-1,3-thiazol-5-yl]acetic acid], the melting point lay in the range of 208 to 210 °C.
In the case of `COCC(C)Oc1cc(Oc2ccc(S(C)(=O)=O)cc2)cc2cc(C3=NCC(CC(C)(C)O)S3)[nH]c12` (stereo not drawn) [Example 60, 1-(2-{7-(2-Methoxy-1-methylethoxy)-5-[4-(methylsulfonyl)phenoxy]-1H-indol-2-yl}-4,5-dihydro-1,3-thiazol-5-yl)-2-methylpropan-2-ol] it was 112 to 113 °C; in that of `CCNC(=O)CC1CN=C(c2cc3cc(Oc4ccc(COC)nc4)cc(OC)c3[nH]2)S1` (stereo not drawn) [Example 51, N-Ethyl-2-[2-(7-methoxy-5-{[6-(methoxymethyl)pyridin-3-yl]oxy}-1H-indol-2-yl)-4,5-dihydro-1,3-thiazol-5-yl]acetamide], 130 to 132 °C.
`CNC(=O)CC1CN=C(c2cc3cc(Oc4ccc(S(C)(=O)=O)cc4)cc(OC)c3[nH]2)S1` (stereo not drawn) [Example 103, 2-(2-{7-Methoxy-5-[4-(methylsulfonyl)phenoxy]-1H-indol-2-yl}-4,5-dihydro-1,3-thiazol-5-yl)-N-methylacetamide] yielded a melting point of 125 to 126 °C.
The value for `CS(=O)(=O)c1ccc(Oc2cc(OCc3ccccc3)c3[nH]c(-c4ncc(CO)s4)cc3c2)cc1` [Example 23, (2-{7-(Benzyloxy)-5-[4-(methylsulfonyl)phenoxy]-1H-indol-2-yl}-1,3-thiazol-5-yl)methanol] was 125 to 126 °C; that for `COc1cc(Oc2ccc(S(C)(=O)=O)nc2)cc2cc(C3=NCC(CC(N)=O)S3)[nH]c12` (stereo not drawn) [Example 29, 2-[2-(7-Methoxy-5-{[6-(methylsulfonyl)pyridin-3-yl]oxy}-1H-indol-2-yl)-4,5-dihydro-1,3-thiazol-5-yl]acetamide] was 225 to 227 °C.
The compound `CNC(=O)CC1CN=C(c2cc3cc(Oc4ccc(S(C)(=O)=O)nc4)c(F)c(OCCOC)c3[nH]2)S1` (stereo not drawn) [Example 92, 2-{2-[6-Fluoro-7-(2-methoxyethoxy)-5-{[6-(methylsulfonyl)pyridin-3-yl]oxy}-1H-indol-2-yl]-4,5-dihydro-1,3-thiazol-5-yl}-N-methylacetamide] displayed a melting point of 151 to 152 °C.
The value for `COCC(C)Oc1cc(Oc2ccc(S(C)(=O)=O)cc2)cc2cc(C3=NCC(C(OC)OC)S3)[nH]c12` (stereo not drawn) [Example 88, 2-[5-(Dimethoxymethyl)-4,5-dihydro-1,3-thiazol-2-yl]-7-(2-methoxy-1-methylethoxy)-5-[4-(methylsulfonyl)phenoxy]-1H-indole] was 109 to 112 °C.
`CCOc1cc(Oc2ccc(S(C)(=O)=O)nc2)cc2cc(C3=NCC(CC(=O)NC)S3)[nH]c12` (stereo not drawn) [Example 97, 2-[2-(7-Ethoxy-5-{[6-(methylsulfonyl)pyridin-3-yl]oxy}-1H-indol-2-yl)-4,5-dihydro-1,3-thiazol-5-yl]-N-methylacetamide] gave a melting point of 233 to 235 °C.
In the case of `COCC(COC)Oc1cc(Oc2ccc(S(C)(=O)=O)nc2)cc2cc(C3=NCC(CCO)S3)[nH]c12` (stereo not drawn) [Example 37, 2-[2-(7-[2-Methoxy-1-(methoxymethyl)ethoxy]-5-{[6-(methylsulfonyl)pyridin-3-yl]oxy}-1H-indol-2-yl)-4,5-dihydro-1,3-thiazol-5-yl]ethanol] it was 69 to 71 °C.
